From patent US20070249599A1, “Novel Chemical Compounds” (priority 2004, published 2007) come the findings set out here.

In the assay the target is T1, hYAK3 (Homo sapiens, UniProt O43781).
T1 construct: GST (N); His6 (C); made in house; host or cells: baculovirus expression system in Sf9 cells
T1 sequence (O43781 124-526): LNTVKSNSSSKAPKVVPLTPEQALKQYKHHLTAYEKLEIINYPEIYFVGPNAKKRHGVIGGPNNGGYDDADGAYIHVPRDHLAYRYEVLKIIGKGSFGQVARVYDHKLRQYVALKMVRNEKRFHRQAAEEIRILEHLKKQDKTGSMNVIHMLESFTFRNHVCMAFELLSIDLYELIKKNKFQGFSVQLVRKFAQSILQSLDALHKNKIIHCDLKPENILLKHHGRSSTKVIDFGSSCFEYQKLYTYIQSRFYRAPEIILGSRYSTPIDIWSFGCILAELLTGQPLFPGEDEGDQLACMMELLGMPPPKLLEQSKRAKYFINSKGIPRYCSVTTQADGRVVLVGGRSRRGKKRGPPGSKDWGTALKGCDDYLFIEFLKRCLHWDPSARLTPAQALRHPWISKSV
The assay can be described thus: YAK3 Scintillation Proximity Assay using Ser164 of myelin basic protein as the phosphoacceptor (kinase assay of purified hYAK3). The following applies: purified GST-hYak3-His6 (aa 124-526), 4 nM; 0.001 mM ATP; 4 μM Ser164 peptide; 2 hours at room temperature; pIC50 = −log10(IC50). It counts as biochemical. On the procedure: Substrate phosphorylation assays were carried out as follows:
YAK3 Scintillation Proximity Assays Using Ser164 of Myelin Basic Protein as the Phosphoacceptor
The source of Ser164 substrate peptide The biotinylated Ser164, S164A peptide(Biotinyl-LGGRDSRAGS*PMARR-OH), sequence derived from the C-terminus of bovine myelin basic protein (MBP) with Ser162 substituted as Ala 162, was purchased from California Peptide Research Inc. (Napa, Calif.), and its purity was determined by HPLC. Phosphorylation occurs at position 164 (marked S* above). The calculated molecular mass of the peptide was 2166 dalton. Solid sample was dissolved at 10 mM in DMSO, aliquoted, and stored at −20° C. until use.
hYAK3: Glutathione-S-Transferase (GST)-hYak3-His6 containing amino acid residues 124-526 of human YAK3 (aa 124-526 of SEQ ID NO 2. in U.S. Pat. No. 6,323,318) was purified from baculovirus expression system in Sf9 cells using Glutathione Sepharose 4B column chromatography followed by Ni-NTA-Agarose column chromatography. Purity greater than 65% typically was achieved. Samples, in 50 mM Tris, 150 mM NaCl, 10% glycerol, 0.1% Triton, 250 mM imidazole, 10 mM β-mercapto ethanol, pH 8.0. were stored at −80° C. until use.
Kinase assay of purified hYAK3: Assays were performed in 96 well (Costar, Catalog No. 3789) or 384 well plates (Costar, Catalog No. 3705). Reaction (in 20, 25, or 40 μl volume) mix contained in final concentrations 25 mM Hepes buffer, pH 7.4; 10 mM MgCl2; 10 mM β-mercapto ethanol; 0.0025% Tween-20; 0.001 mM ATP, 0.1 μCi of [γ-^33P]ATP; purified hYAK3 (7-14 ng/assay; 4 nM final); and 4 μM Ser164 peptide. Compounds, titrated in DMSO, were evaluated at concentrations ranging from 50 μM to 0.5 nM. […] Reactions were incubated for 2 hours at room temperature and were stopped by a 75 ul addition of […] Streptavidin Scintillation Proximity beads (Amersham Pharmacia Biotech, Catalog No. RPNQ 0007) in PBS, pH 7.4, 10 mM EDTA, 0.1% Triton X-100, 1 mM ATP. Under the assay conditions defined above, the Km(apparent) for ATP was determined to be 7.2+/−2.4 μM.

As to `Cc1nc2ccc(C=C3SC(=Nc4c(Cl)cccc4Cl)NC3=O)cc2o1` [Example 59, 2-(2,6-Dichloro-phenylimino)-5-(2-methyl-benzooxazol-6-yl-methylene)-thiazolidin-4-one], the IC50 is 1.02 to 10 nM.

The compound `CN(C)CCn1nnc2ccc(/C=C3\SC(Nc4c(Cl)cccc4Cl)=NC3=O)cc21` [Example 58, (5Z)-2-[(2,6-dichlorophenyl)amino]-5-({1-[2-(dimethylamino)ethyl]-1H-1,2,3-benzotriazol-6-yl}methylidene)-1,3-thiazol-4(5H)-one] had an IC50 of 10.2 to 100 nM.

`Cn1c(C(C)(C)C)nc2ccc(/C=C3\SC(Nc4ccccc4Cl)=NC3=O)cc21` [Example 53, (5Z)-2-[(2-Chlorophenyl)amino]-5-{[2-(1,1-dimethylethyl)-1-methyl-1H-benzimidazol-6-yl]methylidene}-1,3-thiazol-4(5H)-one] showed an IC50 of 102 to 1000 nM.

By IC50 is commonly meant the concentration needed to halve the response being measured.
